For assay [1], the target named is T1, HSP90a protein (Homo sapiens, UniProt P07900).
T1 construct: purchased BPS Bioscience 50298
As to the kind of experiment: HSP90α-binding fluorescent polarization (FP) assay, BODIPY-labeled RNK04010 probe. Conditions: FP competition with RNK04010 (BODIPY-labeled), 5 nM, 300 min at 25° C. The gist of the method:
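Compounds (20 μM down to 5.2 nM, 2.5-fold steps) compete with a 5 nM fluorescent tracer for N-terminal HSP90a, measured by fluorescence polarization. With FITC-geldanamycin, plates sit 120 min at 25 °C. With BODIPY-RNK04010, they sit 300 min at 25 °C.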

The subject of assay [2] is NCI-H358 human non-small cell lung cancer. The experiment in a line: NCI-H358 CCK-8 proliferation assay. The class given is cell-based. Conditions: NCI-H358 cells, 72 hr. An outline of the steps: (§1)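 CCK-8 absorbance readout; % inhibition = 100 − (compound − blank)/(DMSO − blank) × 100, blank = medium + DMSO, no cells. Dose range 20 μM down to 1.02 nM, 3-fold steps. KRAS(G12C) copy number: MIA PaCa-2 2; NCI-H358 1; NCI-H23 1.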

Assay [3] has as its target T2, KRAS(G12C) (Homo sapiens, UniProt P01116, G12C). The experiment in a line: KRAS(G12C)/SOS1 homogeneous time-resolved fluorescence (HTRF) assay. On the set-up: purchased Cisbio 63ADK000CB16PEG. The following applies: absence of GTP, 4° C. for 3 hr, read-out: KRAS (G12C) binding. An outline of the steps:
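Three-hour incubation at 4 °C of 3-fold compound dilutions (lowest 1.02 nM) with KRAS(G12C), SOS1 and detection reagents, GTP absent. Disruption of the KRAS(G12C)/SOS1 complex detected by time-resolved fluorescence.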
In general terms: Time-resolved FRET reads energy transfer from a long-lived donor to a nearby acceptor.

In assay [4] the test system is MIA PaCa-2 human pancreatic carcinoma. The experiment in a line: MIA PaCa-2 CCK-8 proliferation assay. Conditions: MIA PaCa-2 cells. The class given is cell-based. An outline of the steps: as §1
The target in assay [5] is T2, KRAS(G12C). As to the kind of experiment: KRAS(G12C) Western blot protein degradation assay in LU65A cells. Conditions: 6 hr. Further details: LU65A human lung cancer cell line, which expresses KRAS(G12C); host or cells: LU65A. The class given is cell-based. The procedure:
The following cancer cell lines were employed: BT-474 human breast carcinoma (ATCC, #HTB-20); MIA PaCa-2 human pancreatic carcinoma [2 copies KRAS(G12C)](ATCC, #CRL-1420); NCI-H23 human non-small cell lung cancer [1 copy KRAS(G12C)](ATCC, #CRL-5800); NCI-H358 human non-small cell lung cancer [1 copy KRAS(G12C)](ATCC, #CRL-5807); LU65A human lung carcinoma (Pharmaron, Beijing, China). Cell lines were cultured essentially according to ATCC and Pharmaron recommendations.
KRAS(G12C) Western Blot Protein Degradation Assay
The MIA PaCa-2 human pancreatic carcinoma cell line and LU65A human lung cancer cell line, which expresses KRAS(G12C), were seeded in 6- or 12-well tissue culture plates, and after 1 hr, test compounds were added at various concentrations and incubated at 37° C./5% CO2 for 48 hr (MIA Paca-2) and 6 hr (LU65A) respectively. Cells were then washed with cold PBS, aspirated and cold RIPA buffer containing a protease/phosphatase inhibitor cocktail was added to lyse cells. After centrifugation, the total protein concentrations of cell lysates were determined using the BCA protein assay. Samples were normalized for equivalent protein concentrations, 5×SDS-PAGE loading buffer added and denatured at 100° C. for 10 min. 20 μl of each sample/well was loaded on a SDS-PAGE gel and electrophoresed for 20 min at 80 V, then 120 V for 1.5 hr. Gels were then electroblotted to nitrocellulose membranes using a wet-transfer method at 250 mA for 2.5 hr. Membranes were incubated with blocking buffer for 1 hr and washed 3 times with TBST for 5 min. Membranes were then incubated with anti-KRAS (Sigma-Aldrich, #SAB1404011) and anti-β-Actin monoclonal antibodies (Cell Signaling Technology, #3700) diluted in blocking buffer at 4° C. overnight per the manufacturer's recommendations. After washing 3 times, blots were incubated with appropriately labeled secondary antibodies for 1 hr at room temperature and washed again. Fluorescence imaging and quantitation was performed using a LI-COR Odyssey. Results was analyzed using GraphPad Prism 7 software. Compound degradation of was determined by the following equation and DC50 values (the concentration at which 50% of the maximal degradation of KRAS occurs) calculated using GraphPad Prism 7 software:
% Inhibition=100−(D−B)/(S−B)*100%. • S: Fluorescence intensity of cells with antibody • D: Fluorescence intensity of compound-treated cells with antibody • B: Fluorescence intensity of cells without antibody
Background: Immunoblotting shows a protein as a band on a membrane.

T2 sequence (P01116 1-188 isoform P01116-2 G12C): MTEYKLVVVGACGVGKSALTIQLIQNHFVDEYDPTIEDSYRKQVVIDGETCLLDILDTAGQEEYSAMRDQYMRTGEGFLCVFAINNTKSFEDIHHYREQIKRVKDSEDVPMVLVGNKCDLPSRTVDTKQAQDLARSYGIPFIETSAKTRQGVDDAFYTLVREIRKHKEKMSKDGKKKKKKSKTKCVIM

A word on the EC50: it is the concentration giving half of the maximal effect. Consider `C=CC(=O)N1CCN(c2nc(NCCC(=O)N3CCC(CN4CCN(Cc5ccc(-n6c(C(=O)NCC(F)(F)F)nnc6-c6cc(CC)c(O)cc6O)cc5)CC4)CC3)nc3c2CCN(c2cccc4cccc(Cl)c24)C3)C[C@H]1CC#N` [Compound 80, (R)-4-(4-((4-((1-(3-((4-(4-acryloyl-3-(cyanomethyl)piperazin-1-yl)-7-(8-chloronaphthalen-1-yl)-5,6,7,8-tetrahydropyrido[3,4-d]pyrimidin-2-yl)amino)propanoyl)piperidin-4-yl)methyl)piperazin-1-yl)methyl)phenyl)-5-(5-ethyl-2,4-dihydroxyphenyl)-N-(2,2,2-trifluoroethyl)-4H-1,2,4-triazole-3-carboxamide, trifluoroacetic acid], for which the IC50 is 100 to 1000 nM in assay [1] and over 1000 nM in assay [3]. This compound gave an EC50 in assay [2] of 100 to 1000 nM.

In assay [1], `C=CC(=O)N1CCN(c2nc(NCCC(=O)N3CCC(Cc4ccc(CN(C)Cc5ccc(-n6c(C(=O)NCC(F)(F)F)nnc6-c6cc(C(C)C)c(O)cc6O)cc5)cc4)CC3)nc3c2CCN(c2cccc4ccccc24)C3)C[C@H]1CC#N` [Compound 110, (R)-4-(4-(((4-((1-(3-((4-(4-acryloyl-3-(cyanomethyl)piperazin-1-yl)-7-(naphthalen-1-yl)-5,6,7,8-tetrahydropyrido[3,4-d]pyrimidin-2-yl)amino)propanoyl)piperidin-4-yl)methyl)benzyl)(methyl)amino)methyl)phenyl)-5-(2,4-dihydroxy-5-isopropylphenyl)-N-(2,2,2-trifluoroethyl)-4H-1,2,4-triazole-3-carboxamide, trifluoroacetic acid] showed an IC50 of over 1000 nM. Besides, the EC50 in assay [4] (Homo sapiens, MIA PaCa-2, 72 h) was over 1000 nM; in assay [2] it was over 1000 nM.

In assay [1], `CC(=O)N1CCN(c2nc(NCCC(=O)N3CCC(Cc4ccc(CN(C)Cc5ccc(-n6c(C(=O)NCC(F)(F)F)nnc6-c6cc(C(C)C)c(O)cc6O)cc5)cc4)CC3)nc3c2CCN(c2cccc4ccccc24)C3)C[C@H]1CC#N` [Compound 123, (R)-4-(4-(((4-((1-(3-((4-(4-acetyl-3-(cyanomethyl)piperazin-1-yl)-7-(naphthalen-1-yl)-5,6,7,8-tetrahydropyrido[3,4-d]pyrimidin-2-yl)amino)propanoyl)piperidin-4-yl)methyl)benzyl)(methyl)amino)methyl)phenyl)-5-(2,4-dihydroxy-5-isopropylphenyl)-N-(2,2,2-trifluoroethyl)-4H-1,2,4-triazole-3-carboxamide, trifluoroacetic acid] had an IC50 of over 1000 nM. Also, the EC50 in assay [4] (Homo sapiens, MIA PaCa-2, 72 h) was 100 to 1000 nM; in assay [2], 100 to 1000 nM.

Turning to `C=CC(=O)N1CCN(c2nc(OC[C@@H]3CCCN3C(=O)C3CCN(Cc4ccc(-n5c(O)nnc5-c5cc(C(C)C)c(O)cc5O)cc4)CC3)nc3c2CCN(c2cccc4cccc(C)c24)C3)C[C@@H]1CC#N` [Compound 155, 2-((S)-1-acryloyl-4-(2-(((S)-1-(1-(4-(3-(2,4-dihydroxy-5-isopropylphenyl)-5-hydroxy-4H-1,2,4-triazol-4-yl)benzyl)piperidine-4-carbonyl)pyrrolidin-2-yl)methoxy)-7-(8-methylnaphthalen-1-yl)-5,6,7,8-tetrahydropyrido[3,4-d]pyrimidin-4-yl)piperazin-2-yl)acetonitrile, trifluoroacetic acid], the IC50 in assay [1] is 100 to 1000 nM; in assay [3], over 1000 nM. This compound also had an EC50 in assay [2] of over 1000 nM.

`CC(C)c1cc(-c2nnc(C(=O)NCC(F)(F)F)n2-c2ccc(CC3CCN(Cc4ccc(CNC(=O)CCNc5nc6c(c(N7CCN(C(=O)C(C)(C)C)CC7)n5)CCN(c5cc(O)cc7ccccc57)C6)cc4)CC3)cc2)c(O)cc1O` [Compound 156]: the results for the IC50 in assay [1] and in assay [3] were 100 to 1000 nM and over 1000 nM, respectively. The EC50 in assay [2] was in the range of 100 to 1000 nM.

In the case of `C=C(F)C(=O)N1CCN(c2nc(OC[C@@H]3CCCN3CCCOCCC(=O)NCc3ccc(-n4c(O)nnc4-c4cc(C(C)C)c(O)cc4O)cc3)nc3c2CCN(c2cccc4cccc(Cl)c24)C3)C[C@@H]1CC#N` [Compound 160, 3-(3-((S)-2-(((7-(8-chloronaphthalen-1-yl)-4-((S)-3-(cyanomethyl)-4-(2-fluoroacryloyl)piperazin-1-yl)-5,6,7,8-tetrahydropyrido[3,4-d]pyrimidin-2-yl)oxy)methyl)pyrrolidin-1-yl)propoxy)-N-(4-(3-(2,4-dihydroxy-5-isopropylphenyl)-5-hydroxy-4H-1,2,4-triazol-4-yl)benzyl)propenamide], the IC50 in assay [1] was under 100 nM; in assay [3], over 1000 nM. The EC50 in assay [4] (Homo sapiens, MIA PaCa-2, 72 h) was over 1000 nM; in assay [2], over 1000 nM.

As to `C=C(F)C(=O)N1CCN(c2nc(OC[C@@H]3CCCN3CCCOCCC(=O)NCc3ccc(-n4c(O)nnc4-c4cc(CC)c(O)cc4O)cc3)nc3c2CCN(c2cccc4cccc(Cl)c24)C3)C[C@@H]1CC#N` [Compound 161, 3-(3-((S)-2-(((7-(8-chloronaphthalen-1-yl)-4-((S)-3-(cyanomethyl)-4-(2-fluoroacryloyl)piperazin-1-yl)-5,6,7,8-tetrahydropyrido[3,4-d]pyrimidin-2-yl)oxy)methyl)pyrrolidin-1-yl)propoxy)-N-(4-(3-(5-ethyl-2,4-dihydroxyphenyl)-5-hydroxy-4H-1,2,4-triazol-4-yl)benzyl)propanamide], the IC50 in assay [1] and in assay [3] was 100 to 1000 nM each time. Also, the EC50 in assay [4] (Homo sapiens, MIA PaCa-2, 72 h) was over 1000 nM; in assay [2], over 1000 nM.

What is called DC50 is the concentration giving 50% degradation. Higher therefore signals a less potent degrader. For the compound `C=CC(=O)N1CCN(c2nc(OCCN3CCC(C(=O)N4CCN(Cc5ccc(-n6c(C(=O)NCC(F)(F)F)nnc6-c6cc(C)c(O)cc6O)cc5)CC4)CC3)nc3c2CCN(c2cccc4cccc(Cl)c24)C3)C[C@@H]1CC#N` [Compound 253, (S)-4-(4-((4-(1-(2-((4-(4-acryloyl-3-(cyanomethyl)piperazin-1-yl)-7-(8-chloronaphthalen-1-yl)-5,6,7,8-tetrahydropyrido[3,4-d]pyrimidin-2-yl)oxy)ethyl)piperidine-4-carbonyl)piperazin-1-yl)methyl)phenyl)-5-(2,4-dihydroxy-5-methylphenyl)-N-(2,2,2-trifluoroethyl)-4H-1,2,4-triazole-3-carboxamide], in assay [5], the DC50 was over 1000 nM. For the same compound, the EC50 in assay [4] (72 hr) fell in the range of 100 to 1000 nM.

`C=CC(=O)N1CCN(c2nc(OCCN3CCC(C(=O)N4CCN(Cc5ccc(-n6c(C(=O)NCC(F)(F)F)nnc6-c6cc(C)c(O)cc6O)cc5)CC4)CC3)nc3c2CCN(c2cccc4cccc(Cl)c24)C3)C[C@@H]1CC#N` [Compound 254, (S)-4-(4-((4-(1-(2-((4-(4-acryloyl-3-(cyanomethyl)piperazin-1-yl)-7-(8-chloronaphthalen-1-yl)-5,6,7,8-tetrahydropyrido[3,4-d]pyrimidin-2-yl)oxy)ethyl)piperidine-4-carbonyl)piperazin-1-yl)methyl)phenyl)-5-(2,4-dihydroxy-5-methylphenyl)-N-(2,2,2-trifluoroethyl)-4H-1,2,4-triazole-3-carboxamide]: the DC50 in assay [5] is over 1000 nM. Also, the EC50 in assay [4] (72 hr) is over 1000 nM.
